Source: patent publication US9000028B2, “Indole and indazole compounds as an inhibitor of cellular necrosis” (LG Life Sciences Ltd., priority 2007, dated 2015)
Read-outs that look alike come from different tables or passages of the source.

Test system: primary hepatocytes isolated from rats
Assay: Hepatocyte protective effect against substances deriving hepatocyte toxicity (WST-1 viability)
Format: cell-based
Details: for EC50: 24-48 h
Experimental: Various endogenous/exogenous attacks on the cells trigger the mechanisms of cell death which is broadly classified into two types, i.e. apoptosis or necrosis. Using these cell death mechanisms, in the present experimental example, primary hepatocytes isolated from rats were treated with drugs which were clinically shown to result in serious side-effects of hepatocyte toxicity or various chemicals which derive cell death, and the compounds synthesized in the Examples were estimated for their hepatocyte protective effects, after 24-48 h. The substances used to derive hepatocyte death include CCl4, ActD, H2O2, doxorubicin, anti-Fas Ab/Actinomycin D, acetaminophen, EtOH, CdCl2, palmitate, stearate, cyclophosphamide, terfenadine, diclofenac, simvastatin, and adefovir. Primary hepatocytes were isolated using the method of Seglen PO (Experimental Cell Research 74 (1972) pp 450-454). Briefly, hepatocytes were isolated according to the two-step collagenase perfusion method, and dead cells were removed by low speed (500 rpm) centrifugation for 10 min using percoll gradient (Kreamer B L etc, In Vitro Cellular & Developmental Biology 22 (1986) pp 201-211). During this step, the viability of cells was maintained 90% or above. The cells were suspended in HepatoZYME media (Gibco BRL), and the number of cells was counted. 1.5×10^4 cells in 100 μl were placed into the collagen-coated 96-well plate (BD biocoat), and adhered on the bottom for 3-4 h.
In order to assess the hepatocyte protective effect, above adhered cells were pretreated with the Example compounds for 30 min. At this time, the concentration of the Example compounds were serially diluted by 2-fold or 3-fold over 5 steps starting from 30 uM, 10 uM or 1 uM depending on the experiments, and the final concentration of DMSO was adjusted to 0.2%. 30 min after the treatment by compounds, cells were treated by the substances deriving hepatocyte death or hepatotoxic drugs at the concentrations indicated in Table 1. After 24-48 h, the viability of cells was determined to estimate the hepatocyte protective effects. The viability of cells was determined using WST-1 (MK-400, […]) method by the absorbance at 440 nm. Hepatocyte protective effects of the Example compounds were represented by “EC50,” which was calculated from measured values. “EC50” herein means the concentration of the compound at which 50% of maximum protective effect is observed in the experiment.

[1] = Rattus norvegicus, Hepatocyte, doxorubicin, read-out: EC50, cell protective effects against doxorubicin in hepatocytes

Cc1cc(NC2CCOCC2)c2[nH]c(-c3ccccc3)cc2c1 [Example 41, (Tetrahydropyran-4-yl)-(5-methyl-2-phenyl-1H-indol-7-yl)-amine]
EC50 (Rattus norvegicus, Hepatocyte, Actinomycin D 100 ng/mL, read-out: EC50, protective effect against the substances deriving hepatotoxicity): 170 nM | EC50 (Rattus norvegicus, Hepatocyte, Anti-Fas Ab 1 ug/mL / Actinomycin D 5 ng/mL, read-out: EC50, protective effect against the substances deriving hepatotoxicity): < 600 nM | EC50 (Rattus norvegicus, Hepatocyte, CCl4 10 mM, read-out: EC50, protective effect against the substances deriving hepatotoxicity): 800 nM | EC50 (Rattus norvegicus, Hepatocyte, CdCl2 1 uM, read-out: EC50, protective effect against the substances deriving hepatotoxicity): 1900 nM | EC50 (Rattus norvegicus, Hepatocyte, Cyclophosphamide 3 mM, read-out: EC50, protective effect against the substances deriving hepatotoxicity): < 200 nM | EC50 (Rattus norvegicus, Hepatocyte, Doxorubicin 5 uM, read-out: EC50, protective effect against the substances deriving hepatotoxicity): 60 nM | EC50 (Rattus norvegicus, Hepatocyte, EtOH 2.5%, read-out: EC50, protective effect against the substances deriving hepatotoxicity): 9000 nM | EC50 (Rattus norvegicus, Hepatocyte, H2O2 10 mM, read-out: EC50, protective effect against the substances deriving hepatotoxicity): 800 nM | EC50 (Rattus norvegicus, Hepatocyte, Palmitic acid 700 uM, read-out: EC50, protective effect against the substances deriving hepatotoxicity): < 600 nM | EC50 (Rattus norvegicus, Hepatocyte, Stearic acid 700 uM, read-out: EC50, protective effect against the substances deriving hepatotoxicity): < 600 nM | EC50 [1]: 60 nM | viability at 3-100 uM (Tacrine 0.5 mM, compound at 3-100 uM, rat primary hepatocytes): 50%

Cc1cc(NCC2CCCC2)c2[nH]c(-c3ccccc3)cc2c1 [Example 42, Cyclopentylmethyl-(5-methyl-2-phenyl-1H-indol-7-yl)-amine]
EC50 [1]: 40 nM

Cc1cc(NC2CCN(C)CC2)c2[nH]c(-c3ccccc3)cc2c1 [Example 44, (1-Methylpiperidin-4-yl)-(5-methyl-2-phenyl-1H-indol-7-yl)-amine]
EC50 [1]: 170 nM

CC(=O)N1CCC(Nc2cc(C)cc3cc(-c4ccccc4)[nH]c23)CC1 [Example 45, 1-[-4-[(5-Methyl-2-phenyl-1H-indol-7-yl)amino]piperidin-1-yl]ethanone]
EC50 [1]: 210 nM

Clc1cc(NC2CCCC2)c2[nH]c(-c3ccccc3)cc2c1 [Example 46, Cyclopentyl-(5-chloro-2-phenyl-1H-indol-7-yl)-amine]
EC50 [1]: 50 nM

Clc1cc(NC2CCCCC2)c2[nH]c(-c3ccccc3)cc2c1 [Example 47, Cyclohexyl-(5-chloro-2-phenyl-1H-indol-7-yl)-amine]
EC50 [1]: 50 nM

Clc1cc(NC2CCOCC2)c2[nH]c(-c3ccccc3)cc2c1 [Example 48, (Tetrahydropyran-4-yl)-(5-chloro-2-phenyl-1H-indol-7-yl)-amine]
EC50 [1]: 44 nM

Clc1cc(NCC2CCCC2)c2[nH]c(-c3ccccc3)cc2c1 [Example 49, Cyclopentylmethyl-(5-chloro-2-phenyl-1H-indol-7-yl)-amine]
EC50 [1]: 133 nM

Clc1cc(NCC2CCOCC2)c2[nH]c(-c3ccccc3)cc2c1 [Example 50, (Tetrahydropyran-4-ylmethyl)-(5-chloro-2-phenyl-1H-indol-7-yl)-amine]
EC50 [1]: 43 nM

Clc1cc(NC2CCN(Cc3ccccc3)C2)c2[nH]c(-c3ccccc3)cc2c1 (stereo not shown) [Example 51, (1-Benzylpyrrolidin-3-yl)-(5-chloro-2-phenyl-1H-indol-7-yl)-amine]
EC50 [1]: 230 nM

CN1CCC(Nc2cc(Cl)cc3cc(-c4ccccc4)[nH]c23)CC1 [Example 52, (1-Methylpiperidin-4-yl)-(5-chloro-2-phenyl-1H-indol-7-yl)-amine]
EC50 [1]: 140 nM

Clc1cc(NC2CCC3(CC2)OCCO3)c2[nH]c(-c3ccccc3)cc2c1 [Example 53, (1,4-Dioxaspiro[4.5]decan-8-yl)-(5-chloro-2-phenyl-1H-indol-7-yl)-amine]
EC50 [1]: 40 nM

OCC(CO)Nc1cc(Cl)cc2cc(-c3ccccc3)[nH]c12 [Example 54, 2-[(5-Chloro-2-phenyl-1H-indol-7-yl)amino]propan-1,3-diol]
EC50 [1]: 220 nM

O=S1(=O)CCN(Cc2cc(N(CC3CCOCC3)CC3CCOCC3)c3[nH]c(-c4ccccc4)cc3c2)CC1 [Example 57, Di(tetrahydropyran-4-ylmethyl)-[2-phenyl-5-(1,1-dioxo-thiomorpholin-4-yl)methyl-1H-indol-7-yl]amine]
EC50 [1]: 270 nM

O=S1(=O)CCN(Cc2cc(N(C3CCOCC3)C3CCOCC3)c3[nH]c(-c4ccccc4)cc3c2)CC1 [Example 58, Di(tetrahydropyran-4-yl)-[2-phenyl-5-(1,1-dioxo-thiomorpholin-4-yl)methyl-1H-indol-7-yl]amine]
EC50 [1]: 260 nM

CN1CCC(CNc2cc(F)cc3cc(-c4ccccc4)[nH]c23)CC1 [Example 59, (1-Methyl-piperidinemethyl-4-yl)-[5-fluoro-2-phenyl-1H-indol-7-yl]amine]
EC50 (doxorubicin, rat primary hepatocytes, read-out: EC50, cell protective effects against doxorubicin in hepatocytes): 200 nM

OCCN1CCC(Nc2cc(F)cc3cc(-c4ccccc4)[nH]c23)CC1 [Example 60, 2-[4-[(5-Fluoro-2-phenyl-1H-indol-7-yl)amino]piperidin-1-yl]ethanol]
EC50 [1]: 170 nM

Fc1cc(NC2CCN(C3CCOCC3)CC2)c2[nH]c(-c3ccccc3)cc2c1 [Example 61, [1-(Tetrahydropyran-4-yl)piperidin-4-yl]-(5-fluoro-2-phenyl-1H-indol-7-yl)amine]
EC50 [1]: 260 nM

c1ccc(Oc2cc(NC3CCOCC3)c3[nH]c(-c4ccccc4)cc3c2)cc1 [Example 62, (Tetrahydropyran-4-yl)-(5-phenoxy-2-phenyl-1H-indol-7-yl)-amine]
EC50 [1]: 110 nM

CCN(CC)CCn1c(-c2ccccc2)cc2cc(Cl)cc(NC3CCOCC3)c21 [Example 64, (Tetrahydropyran-4-yl)-[5-chloro-1-(2-diethylaminoethyl)-2-phenyl-1H-indol-7-yl]amine]
EC50 [1]: 260 nM

CN(C)c1cc(Cl)cc2cc(-c3ccccc3)n(C)c12 [Example 65, Dimethyl-(5-chloro-1-methyl-2-phenyl-1H-indol-7-yl)amine]
EC50 [1]: 600 nM

Clc1cc(NC2CCCC2)c2[nH]c(-c3ccccc3)c(CN3CCOCC3)c2c1 [Example 67, Cyclopentyl-(5-chloro-3-(morpholin-4-yl)methyl-2-phenyl-1H-indol-7-yl)-amine]
EC50 [1]: < 130 nM

Clc1cc(NC2CCOCC2)c2[nH]c(-c3ccccc3)c(CN3CCOCC3)c2c1 [Example 68, (Tetrahydropyran-4-yl)-(5-chloro-3-(morpholin-4-yl)methyl-2-phenyl-1H-indol-7-yl)-amine]
EC50 [1]: 320 nM

O=C1CN(Cc2c(-c3ccccc3)[nH]c3c(NC4CCOCC4)cc(Cl)cc23)CCN1 [Example 69, (Tetrahydropyran-4-yl)-(5-chloro-3-(2-oxo-piperazin-4-yl)methyl-2-phenyl-1H-indol-7-yl)-amine]
EC50 [1]: 355 nM

O=C1CN(Cc2c(-c3ccccc3)[nH]c3c(NC4CCCC4)cc(Cl)cc23)CCN1 [Example 70, Cyclopentyl-(5-chloro-3-(2-oxo-piperazin-4-yl)methyl-2-phenyl-1H-indol-7-yl)-amine]
EC50 [1]: 256 nM

O=C1CN(Cc2c(-c3ccccc3)[nH]c3c(NCC4CCOCC4)cc(Cl)cc23)CCN1 [Example 71, (Tetrahydropyran-4-ylmethyl)-(5-chloro-3-(2-oxo-piperazin-4-yl)methyl-2-phenyl-1H-indol-7-yl)-amine]
EC50 [1]: 254 nM

O=S1(=O)CCN(Cc2cc(NC3CCOCC3)c3[nH]c(-c4ccccc4)c(Br)c3c2)CC1 [Example 72, (Tetrahydropyran-4-yl)-(3-bromo-5-(1,1-dioxo-thiomorpholin-4-yl)methyl-2-phenyl-1H-indol-7-yl)-amine]
EC50 [1]: 60 nM

O=S1(=O)CCN(Cc2cc(NC3CCCC3)c3[nH]c(-c4ccccc4)c(Br)c3c2)CC1 [Example 73, Cyclopentyl-(3-bromo-5-(1,1-dioxo-thiomorpholin-4-yl)methyl-2-phenyl-1H-indol-7-yl)-amine]
EC50 [1]: 120 nM

O=S1(=O)CCN(Cc2cc(NC3CCOCC3)c3[nH]c(-c4cccc(F)c4)cc3c2)CC1 [Example 75, (Tetrahydropyran-4-yl)-(5-(1,1-dioxo-thiomorpholin-4-yl)methyl-2-(3-fluorophenyl)-1H-indol-7-yl)-amine]
EC50 [1]: 120 nM

CC(C)(C)OC(=O)Nc1ccc(-c2cc3cc(Cl)cc(NC4CCCC4)c3[nH]2)cc1 [Example 78, t-Butyl N-[4-[5-chloro-7-(cyclopentylamino)-1H-indol-2-yl]phenyl]carbamate]
EC50 [1]: 210 nM

Clc1cc(NC2CCOCC2)c2[nH]cc(-c3ccccc3)c2c1 [Example 79, (Tetrahydropyran-4-yl)-(5-chloro-3-phenyl-1H-indol-7-yl)-amine]
EC50 [1]: 140 nM

Clc1cc(NC2CCCC2)c2[nH]cc(-c3ccccc3)c2c1 [Example 80, Cyclopentyl-(5-chloro-3-phenyl-1H-indol-7-yl)-amine]
EC50 [1]: 100 nM
